Measurements: patent publication US20240400579A1, “SPIROCYCLIC MODULATORS OF CHOLESTEROL BIOSYNTHESIS AND THEIR USE FOR PROMOTING REMYELINATION” (GENENTECH, INC., priority 2021, published 2024)

How the values were obtained:
[1] = biological target: human EBP (Homo sapiens (Human), UniProt Q15125); assay: Competition binding assay (SPA) to determine compound affinity to EBP; settings: radioligand [3H]-Ifenprodil 10 nM; Ki=IC50/(1+[L]/Kd); HEK293 membrane; read-out: hEBP SPA Ki
Procedure: Membrane preparation: To examine compound binding affinity to EBP, human EBP was overexpressed in human embryonic kidney 293 cells. Cell pellet was lysed in 10 times weight binding buffer (50 mM Tris, 5 mM MgCl2, 0.1 mM EDTA, 1× protease inhibitor cocktail, pH 7.5) on ice by using a dounce homogenizer. The solution was centrifuged at 25,000 g for 50 min at 4° C. The membrane pellet was re-suspended in binding buffer and run through a 25 5/8 gauge needle. After checking the concentration by Bradford assay, the whole cell membrane solution was adjusted to 20 mg/mL and stored at −80° C.
This binding solution was centrifuged at 400 g for 5 minutes to collect the bead/membrane mixture. After re-suspending the pellet in binding buffer at the same calculated volume with 0.01% BSA (Sigma A1933), the bead/membrane mixture was added in 384-well low-binding surface plate (PerkinElmer Cat #6057480) at 25 i/well. Radioligand at different concentrations with and without the non-radio-labeled same ligand 5 uM (for nonspecific and total signal, respectively) was added to bring final volume to 50 i/well with DMSO concentration at 0.1%. At equilibrium (3 hours after ligand addition), radiometric signal CPM was counted by using a Microbeta2 microplate counter (Perkinelmer).
Competition binding assay to determine compound affinity: The same conditions of the radioligand Kd study were used for compound single dose percentage inhibition and equilibrium dissociation constant Ki examinations, except 50 nL compound DMSO stock was pre-added in 384-well low-binding surface plate (PerkinElmer Cat #6057480) by Echo 550 (Labcyte) to reach the final concentration for single dose test at 1 uM, and dose response test from 0.06 nM to 5 uM (8 dose, 5 times dilution). A pre-incubated bead/membrane mixture was added in compound plate at 0.3 mg beads and […] membrane per well. […] At equilibrium (3 hours after ligand addition), radiometric signal was counted as described above. The percentage inhibition of compound at each testing concentration was calculated by normalizing each condition's CPM readout to full block (5 uM non-radiolabeled ligand) and non-block (DMSO) control conditions. Compound binding inhibition IC50 was determined by nonlinear regression fitting of percentage inhibition plot against compound concentration. Compound Ki was calculated from the equation Ki=IC50/(1+[L]/Kd), which [L] was radioligand concentration used in assay. All tests had N bigger or equal to 2.

[2] = biological target: human emopamil binding protein and human 7-dehydrocholesterol reductase co-expressing cell membrane (Homo sapiens (Human), UniProt Q15125); assay: hEBP-DHCR7 radioligand filtration binding assay with [3H]-Compound 118A*; settings: radioligand [3H]-Compound 118A*; HEK293 membrane co-expressing hEBP and DHCR7
Method in brief: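 HEK293 membranes transiently co-expressing hEBP and hDHCR7 (10 μg/well) were incubated with [3H]-Compound 118A* (added at 25 nM) and compounds (8 doses, final 0.06–5000 nM, n=2) for 3 h at 22 °C. Bound radioactivity was read after PEI-treated GF/B filtration. IC50 came from a Hill fit of % inhibition and was converted to Ki.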

[3] = tested on: zymostenol accumulation in EpiSC-derived OPCs (EBP); assay: GC/MS-based sterol profiling, zymostenol accumulation; format: cell-based, mouse; settings: Mus musculus, 24 h, 8 doses from 0.15 nM to 333 nM, read-out: mZymo GCMS EC50
Method in brief: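 EpiSC-derived mouse OPCs plated at 100,000 cells/well in N2B27 without growth factors and treated 24 h. Sterols extracted, silylated with BSTFA and measured by GC/MS (EI, full scan), quantified against cholesterol-d7. Zymostenol normalized to levels after 24 h with 100 nM positive control reference.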

[4] = tested on: EpiSC-derived OPCs; assay: In vitro phenotypic screening of OPCs, MBP high-content imaging; format: cell-based, mouse; settings: Mus musculus, 72 h, percentage of MBP+ oligodendrocytes; 3 days; 0.5 nM to 1000 nM; read-out: mOPC EC50
Method in brief: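 Mouse EpiSC-derived OPCs seeded without growth factors and exposed 3 days at 37° C. to 8-point doses, 1000 nM to 0.5 nM final. Fixed cells stained for MBP and DAPI; high-content imaging gave percentage MBP+ oligodendrocytes, with EC50 from Hill-equation fit.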

Chain of human EBP (Q15125 whole entry): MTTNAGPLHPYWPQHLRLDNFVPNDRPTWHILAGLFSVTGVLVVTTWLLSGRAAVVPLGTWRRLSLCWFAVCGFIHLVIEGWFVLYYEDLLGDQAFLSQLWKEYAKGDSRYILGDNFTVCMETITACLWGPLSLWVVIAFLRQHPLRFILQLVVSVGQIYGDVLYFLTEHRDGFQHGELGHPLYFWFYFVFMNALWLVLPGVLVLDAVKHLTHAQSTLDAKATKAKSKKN
Chain of human emopamil binding protein and human 7-dehydrocholesterol reductase co-expressing cell membrane (Q15125 whole entry): as above

Compound	Ki [1]	Ki [2]	EC50 [3]	EC50 [4]
O=S1(=O)CC2(CCN(CC(F)Cc3ccc(C(F)(F)F)cc3)C2)C1 (racemic) [Example 142, (S)-6-(2-Fluoro-3-(4-(trifluoromethyl)phenyl)propyl)-2-thia-6-azaspiro[3.4]octane 2,2-dioxide and (R)-6-(2-fluoro-3-(4-(trifluoromethyl)phenyl)propyl)-2-thia-6-azaspiro[3.4]octane 2,2-dioxide]	35 nM	16.1 nM	14 nM	
CC(Cc1cc(C(F)(F)F)nn1C(C)C)CN1CCC2(C1)CS(=O)(=O)C2 (racemic) [Example 155, (S)-6-(3-(1-Isopropyl-3-(trifluoromethyl)-1H-pyrazol-5-yl)-2-methylpropyl)-2-thia-6-azaspiro[3.4]octane 2,2-dioxide and (R)-6-(3-(1-isopropyl-3-(trifluoromethyl)-1H-pyrazol-5-yl)-2-methylpropyl)-2-thia-6-azaspiro[3.4]octane 2,2-dioxide]	14 nM	187 nM	3 nM	
C[C@H](Cc1ccc(C(F)F)cc1)CN1CCC2(C1)CS(=O)(=O)C2 (single isomer, unassigned) [Compound 128B]	45 nM	25.7 nM	4.8 nM	
C[C@H](Cc1cnc(C(F)(F)F)nc1)CN1CCC2(C1)CS(=O)(=O)C2 (single isomer, unassigned) [Compound 145B]	100 nM	106 nM	55 nM	
C[C@@H](Cc1cnn(CC(F)(F)F)c1)CN1CCC2(C1)CS(=O)(=O)C2 (single isomer, unassigned) [Compound 154A]	59 nM	176 nM	200 nM	
C[C@H](Cc1cnn(CC(F)(F)F)c1)CN1CCC2(C1)CS(=O)(=O)C2 (single isomer, unassigned) [Compound 154B]	53 nM	143 nM	250 nM	
CC(C)(CN1CCC2(C1)CS(=O)(=O)C2)Oc1cccc(F)c1 [Example 127, 6-(2-(3-Fluorophenoxy)-2-methylpropyl)-2-thia-6-azaspiro[3.4]octane-2,2-dioxide]		21.3 nM	13 nM	15 nM
CC(C)(CN1CCC2(C1)CS(=O)(=O)C2)Oc1ccc(F)cc1 [Example 132, 6-(2-(4-Fluorophenoxy)-2-methylpropyl)-2-thia-6-azaspiro[3.4]octane 2,2-dioxide]	26 nM	14.7 nM	7.2 nM	
CC(C)(CN1CCC2(C1)CS(=O)(=O)C2)Oc1ccccc1F [Example 133, 6-(2-(2-Fluorophenoxy)-2-methylpropyl)-2-thia-6-azaspiro[3.4]octane 2,2-dioxide]	89 nM	86.6 nM	72 nM	
CC(C)(Cc1cncc(C(F)(F)F)c1)CN1CCC2(C1)CS(=O)(=O)C2 [Example 149, 6-(2,2-Dimethyl-3-(5-(trifluoromethyl)pyridin-3-yl)propyl)-2-thia-6-azaspiro[3.4]octane-2,2-dioxide]		24.6 nM	1.6 nM	6.3 nM
CC(C)(Cc1ccc(C(F)(F)F)cn1)CN1CCC2(C1)CS(=O)(=O)C2 [Example 150, 6-(2,2-Dimethyl-3-(5-(trifluoromethyl)pyridin-2-yl)propyl)-2-thia-6-azaspiro[3.4]octane-2,2-dioxide]		29.9 nM	4.9 nM	25 nM
CC(C)(Cc1ccc(C(F)(F)F)nc1)CN1CCC2(CC1)CS(=O)(=O)C2 [Example 152, 7-(2,2-Dimethyl-3-(6-(trifluoromethyl)pyridin-3-yl)propyl)-2-thia-7-azaspiro[3.5]nonane-2,2-dioxide]		16 nM	3.3 nM	11 nM
CC(C)(Cc1ccc(C(F)(F)F)cc1)CN1CCC2(CC1)CS(=O)(=O)C2 [Example 153, 7-(2,2-Dimethyl-3-(4-(trifluoromethyl)phenyl)propyl)-2-thia-7-azaspiro[3.5]nonane-2,2-dioxide]		7.23 nM	0.87 nM	1.6 nM
O=S1(=O)CC2(CCN(CCOc3ccc(F)c(F)c3)CC2)C1 [Example 158, 7-(2-(3,4-Difluorophenoxy)ethyl)-2-thia-7-azaspiro[3.5]nonane 2,2-dioxide]		10 nM	2 nM	2.9 nM
O=S1(=O)CC2(CCN(CC3(Oc4ccc(C(F)(F)F)cc4)CCCC3)CC2)C1 [Example 202, 7-((1-(4-(Trifluoromethyl)phenoxy)cyclopentyl)methyl)-2-thia-7-azaspiro[3.5]nonane 2,2-dioxide]		14.7 nM	42 nM	220 nM
O=S1(=O)CC2(CCN(CCOc3ccc(F)cc3F)CC2)C1 [Example 204, 7-(2-(2,4-Difluorophenoxy)ethyl)-2-thia-7-azaspiro[3.5]nonane 2,2-dioxide]		28.9 nM	2.3 nM	6.8 nM
CC(C)(CN1CCC2(CC1)CS(=O)(=O)C2)Oc1ccc(C(F)(F)F)nc1 [Example 205, 7-(2-Methyl-2-((6-(trifluoromethyl)pyridin-3-yl)oxy)propyl)-2-thia-7-azaspiro[3.5]nonane 2,2-dioxide]		19.4 nM	5.6 nM	24 nM
O=S1(=O)CC2(CCN(CCOc3ccc(Cl)c(F)c3)CC2)C1 [Example 206, 7-(2-(4-Chloro-3-fluorophenoxy)ethyl)-2-thia-7-azaspiro[3.5]nonane 2,2-dioxide]		13.2 nM	1.5 nM	3.2 nM
CC(C)(CN1CCC2(CC1)CS(=O)(=O)C2)Oc1ccc(C(F)(F)F)c(F)c1 [Example 208, 7-(2-(3-Fluoro-4-(trifluoromethyl)phenoxy)-2-methylpropyl)-2-thia-7-azaspiro[3.5]nonane 2,2-dioxide]		12.8 nM	0.69 nM	1.52 nM
CC(C)(CN1CC2(CCS(=O)(=O)CC2)C1)Oc1ccc(C(F)(F)F)cc1 [Example 209, 2-(2-Methyl-2-(4-(trifluoromethyl)phenoxy)propyl)-7-thia-2-azaspiro[3.5]nonane 7,7-dioxide]		13.9 nM	9.9 nM	45 nM
O=S1(=O)CC2(CCN(CCOc3cncc(F)c3)CC2)C1 [Example 210, 7-(2-((5-Fluoropyridin-3-yl)oxy)ethyl)-2-thia-7-azaspiro[3.5]nonane 2,2-dioxide]		504 nM	52 nM	282 nM
